Km data for two compounds are collected here from doi:10.1101/2024.06.14.598950v1 (biorxiv, 2024).

As a reminder, the Km is the substrate concentration at which the rate is half of its maximum.

Holding throughout (experiment): DTNB spectrophotometric assay, nonlinear regression
Common to all, as to assay type: biochemical, Brassica juncea
Holding throughout (settings): 30 °C

The subject of assay [1] is Bju.IPMS1-B1.
Assay [2] concerns Bju.IPMS1-A1.
For assay [3], the system named is Bju.IPMS1-A2.
In assay [4] the test system is Bju.IPMS1-B2.

On to `CC(=O)SCCNC(=O)CCNC(=O)[C@H](O)C(C)(C)COP(=O)(O)OP(=O)(O)OC[C@H]1O[C@@H](n2cnc3c(N)ncnc32)[C@H](O)[C@@H]1OP(=O)(O)O` [acetyl-CoA], for which the Km worked out at 1260 ± 369 µM in assay [1] (1 mM 2-oxoisovalerate), 770 ± 211 µM in assay [2] (1 mM 2-oxoisovalerate), 406 ± 75.9 µM in assay [3] (1 mM 2-oxoisovalerate) and 532 ± 91.9 µM in assay [4] (1 mM 2-oxoisovalerate).

Regarding `CC(C)C(=O)C(=O)O` [2-oxoisovalerate, 3-methyl-2-oxobutanoate], the Km was 217 ± 67.2 µM in assay [1] (0.5 mM acetyl-CoA), 158 ± 35.4 µM in assay [2] (0.5 mM acetyl-CoA), 144 ± 40.9 µM in assay [3] (0.5 mM acetyl-CoA) and 231 ± 47.1 µM in assay [4] (0.5 mM acetyl-CoA).
